{
  "source": "patent US20020137781A1",
  "about": "“Preparation and use of enantiomer-pure 2,4-disubstituted oxazolines” (priority 1999, published 2002)",
  "key": {"[1]": {"tested_on": "Tetranychus urticae", "assay": "Effect against Tetranychus urticae", "type": "in vivo", "conditions": "400 ppm spray on bean plants, mixed population, 6 days at 25° C.", "protocol": "(§1) Young bean plants are colonised with a mixed population of Tetranychus urticae and, one day later, are sprayed with an aqueous emulsion spray mixture containing 400 ppm of active ingredient. The plants are subsequently incubated for 6 days at 25° C. and then evaluated. The percentage reduction of the population (% response) is determined by comparing the total number of dead eggs, larvae, and adults on the treated plants with those on the untreated plants."}, "[2]": {"tested_on": "Spodoptera littoralis", "assay": "Effect on Spodoptera littoralis", "type": "in vivo", "conditions": "400 ppm spray on soybean plants, third-instar larvae, three days", "protocol": "Young soybean plants are sprayed with an aqueous emulsion spray mixture containing 400 ppm of active ingredient. After the spray deposit has dried, the plants are colonised with 10 third-instar larvae of Spodoptera littoralis and placed in a plastic container. Three days later they are evaluated. The percentage reduction of the population and of the feeding damage (% response) is determined by comparing the total number of dead caterpillars and the feeding damage on the treated plants with those on the untreated plants."}, "[3]": {"tested_on": "Heliothis virescens", "assay": "Ovicidal/larvicidal effect on Heliothis virescens", "type": "in vivo", "conditions": "400 ppm spray on eggs laid on cotton, after 8 days", "source_text": "Eggs of Heliothis virescens laid on cotton are sprayed with an aqueous emulsion spray mixture containing 400 ppm of active ingredient. After 8 days, the percentage hatching rate of the eggs and the survival rate of the caterpillars are compared with those for untreated controls (% reduction of population)"}, "[4]": {"tested_on": "Ctenocephalides felis", "assay": "In vitro effect on eggs, larvae, or pupae of the cat flea Ctenocephalides felis", "conditions": "15, 1.5, 0.15 and 0.015 ppm test solutions, after 21 days", "protocol": "Acetonic test solutions are prepared containing test substances in concentrations of 15, 1.5, 0.15 and 0.015 ppm. 9.9 ml of each test solution is mixed with 14.85 g of culture medium for flea larvae and dried for about 12 hours. The slightly clumped, dry culture medium is mechanically pulverized again until it is homogeneous and free-flowing. It is then transferred to bottles for the breeding of fleas. To each bottle, 100 to 200 flea eggs are added, the bottles are loosely closed with a wad of cottonwool and placed in an incubator at 25 to 26° C. and a relative humidity of about 60%. After 21 days, the effect of the test substances in the different concentrations is evaluated and the lowest effective concentration determined using a stereomicroscope. The activity is evaluated on the basis of the hatching rate, larva development, pupation, and the hatching of young fleas. Enantiomers A of formula (I) show a pronounced effect in this test."}, "[5]": {"tested_on": "Aphis craccivora", "assay": "Effect against Aphis craccivora", "type": "in vivo", "conditions": "400 ppm spray on pea seedlings, 20° C., 3 and 6 days", "protocol": "Pea seedlings are infected with Aphis craccivora, subsequently sprayed with a spray mixture containing 400 ppm of active ingredient, and then incubated at 20° C. 3 and 6 days later, they are evaluated. The percentage reduction of the population (% response) is determined by comparing the number of dead aphids on the treated plants with those on the untreated plants."}, "[6]": {"tested_on": "Bemisia tabaci", "assay": "Effect against Bemisia tabaci", "type": "in vivo", "conditions": "400 ppm spray on dwarf bean plants with nymphs, after a further 14 days", "source_text": "Dwarf bean plants are placed in gauze cages and colonised with adults of Bemisia tabaci. Following oviposition, all adults are removed. Ten days later, the plants and the nymphs thereon are sprayed with an aqueous emulsion spray mixture containing 400 ppm of the active ingredient. After a further 14 days, the percentage hatching rate of the eggs is compared with that of untreated controls."}, "[7]": {"tested_on": "Blattella germanica", "assay": "Effect against Blattella germanica", "type": "in vivo", "conditions": "application rate of 2 g/m^2, nymphs exposed 2 hours, evaluated after 48 hours", "protocol": "Sufficient acetonic solution (0.1%) of the active ingredient is added to a Petri dish for the quantity thereof to correspond to an application rate of 2 g/m^2. When the solvent has evaporated, 20 nymphs of Blattella germanica (last nymph stage) are placed in the dish and exposed to the action of the test substance for 2 hours. The nymphs are then anaesthetised with CO2, added to a fresh Petri dish and kept in the dark at 25° and 50 to 70% humidity. After 48 hours, the insecticidal effect is evaluated by determining the mortality rate."}, "[8]": {"tested_on": "Crocidolomia binotalis", "assay": "Effect against Crocidolomia binotalis", "type": "in vivo", "conditions": "400 ppm spray on cabbage plants, third-instar caterpillars, three days", "protocol": "Young cabbage plants are sprayed with an aqueous emulsion spray mixture containing 400 ppm of active ingredient. After the spray coating has dried on, the cabbage plants are colonised with 10 third-instar caterpillars of Crocidolomia binotalis and placed in a plastic container. Three days later they are evaluated. The percentage reduction of the population and of the feeding damage (% response) is determined by comparing the total number of dead caterpillars and the feeding damage on the treated plants with those on the untreated plants."}, "[9]": {"tested_on": "Tetranychus urticae", "assay": "Ovicidal effect on Tetranychus urticae", "type": "in vivo", "conditions": "400 ppm spray on bean plants colonised with eggs, 6 days at 25° C.", "protocol": "as §1, with “females” for “a mixed population”, “urticae, which are removed again after 24 hours. The plants colonised with eggs” for “urticae and, one day later,”, “are” for “are subsequently”"}, "[10]": {"tested_on": "Aonidiella aurantii", "assay": "Effect against Aonidiella aurantii", "type": "in vivo", "conditions": "400 ppm, potato tubers immersed, 10 to 12 weeks", "protocol": "Potato tubers are colonised with crawlers of Aonidiella aurantii. After about 2 weeks, the potatoes are immersed in an aqueous emulsion or suspension spray mixture containing 400 ppm of active ingredient. After the tubers have dried off, they are incubated in a plastic container. Evaluation is effected 10 to 12 weeks later by comparing the survival rate of the crawlers of the first secondary generation of the treated population with that of untreated control batches."}, "[11]": {"tested_on": "Diabrotica balteata", "assay": "Effect on Diabrotica balteata larvae", "type": "in vivo", "conditions": "400 ppm spray on corn seedlings, second instar larvae, six days", "protocol": "Corn seedlings are sprayed with an aqueous emulsion spray mixture containing 400 ppm of active ingredient. After drying of the spray deposit, the corn seedlings are colonised with 10 second instar larvae of Diabrotica balteata and placed in a plastic container. Six days later they are evaluated. The percentage reduction of the population (% response) is determined by comparing the number of dead larvae on the treated plants with those on the untreated plants."}, "[12]": {"tested_on": "Nilaparvata lugens", "assay": "Effect against Nilaparvata lugens", "type": "in vivo", "conditions": "400 ppm spray on rice plants, second and third instar larvae, 21 days", "protocol": "Rice plants are sprayed with an aqueous emulsion spray mixture containing 400 ppm of active ingredient. After the spray coating has dried on, the rice plants are colonised with second and third instar larvae of plant and leaf-hoppers. 21 days later they are evaluated. The percentage reduction of the population (% response) is determined by comparing the number of surviving plant and leaf-hoppers on the treated plants with those on the untreated plants."}},
  "data": [
    {"smiles": "Fc1cccc(F)c1C1=NC(c2ccc(-c3ccc(C(F)(F)F)cc3)cc2)CO1", "note": "(single isomer, unassigned) [1.1, 2-(2,6-difluoro-phenyl)-4-(4′-trifluoromethylbiphenyl-4-yl)-4,5-dihydro-oxazole]", "values": [
      {"measurement": "percentage reduction of the population (% response)", "setting": "[1]", "result": "more than 80%"},
      {"measurement": "percentage reduction of the population and of the feeding damage (% response)", "setting": "[2]", "result": "more than 80%"},
      {"measurement": "% reduction of population (hatching rate of eggs and survival rate of caterpillars)", "setting": "[3]", "result": "more than 80%"},
      {"measurement": "effect on hatching rate, larva development, pupation and hatching of young fleas (in words)", "setting": "[4]", "result": "most active test substance"},
      {"measurement": "percentage reduction of the population (% response)", "setting": "[5]", "result": "more than 80%"},
      {"measurement": "response (percentage hatching rate of the eggs vs untreated controls)", "setting": "[6]", "result": "more than 80%"},
      {"measurement": "mortality rate (response)", "setting": "[7]", "result": "more than 80%"},
      {"measurement": "percentage reduction of the population and of the feeding damage (% response)", "setting": "[8]", "result": "more than 80%"},
      {"measurement": "percentage reduction of the population (% response)", "setting": "[9]", "result": "more than 80%"},
      {"measurement": "response (survival rate of the crawlers of the first secondary generation vs untreated)", "setting": "[10]", "result": "more than 80%"},
      {"measurement": "percentage reduction of the population (% response)", "setting": "[11]", "result": "more than 80%"},
      {"measurement": "percentage reduction of the population (% response)", "setting": "[12]", "result": "more than 80%"}
    ]}
  ]
}
